Results from PubChem BioAssay (NCI).
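GI50: concentration for 50% inhibition of growth. TGI: concentration producing complete growth inhibition.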

How the values were obtained:
Assay in all cases: growth of human tumour cells (NCI), 384-well format
786-0 renal = test system: 786-0 renal
A498 renal = test system: A498 renal
A549 NSCLC = test system: A549 NSCLC
ACHN renal = test system: ACHN renal
BT-549 breast = test system: BT-549 breast
CAKI-1 renal = test system: CAKI-1 renal
CCRF-CEM leukemia = test system: CCRF-CEM leukemia
COLO 205 colon = test system: COLO 205 colon
DU-145 prostate = test system: DU-145 prostate
EKVX NSCLC = test system: EKVX NSCLC
HCC-2998 colon = test system: HCC-2998 colon
HCT-15 colon = test system: HCT-15 colon
HL-60(TB) leukemia = test system: HL-60(TB) leukemia
HOP-62 NSCLC = test system: HOP-62 NSCLC
HOP-92 NSCLC = test system: HOP-92 NSCLC
HS 578T breast = test system: HS 578T breast
HT29 colon = test system: HT29 colon
IGROV1 ovarian = test system: IGROV1 ovarian
K-562 leukemia = test system: K-562 leukemia
KM12 colon = test system: KM12 colon
LOX IMVI melanoma = test system: LOX IMVI melanoma
M14 melanoma = test system: M14 melanoma
MALME-3M melanoma = test system: MALME-3M melanoma
MCF7 breast = test system: MCF7 breast
MDA-MB-231 breast = test system: MDA-MB-231 breast
MDA-MB-435 melanoma = test system: MDA-MB-435 melanoma
MDA-MB-468 breast = test system: MDA-MB-468 breast
MOLT-4 leukemia = test system: MOLT-4 leukemia
NCI-H226 lung = test system: NCI-H226 lung
NCI-H23 lung = test system: NCI-H23 lung
NCI-H322M lung = test system: NCI-H322M lung
NCI-H460 NSCLC = test system: NCI-H460 NSCLC
NCI-H522 lung = test system: NCI-H522 lung
NCI/ADR-RES ovarian = test system: NCI/ADR-RES ovarian
OVCAR-3 ovarian = test system: OVCAR-3 ovarian
OVCAR-4 ovarian = test system: OVCAR-4 ovarian
OVCAR-5 ovarian = test system: OVCAR-5 ovarian
OVCAR-8 ovarian = test system: OVCAR-8 ovarian
PC-3 prostate = test system: PC-3 prostate
RPMI-8226 leukemia = test system: RPMI-8226 leukemia
RXF 393 renal = test system: RXF 393 renal
SF-268 CNS = test system: SF-268 CNS
SF-295 CNS = test system: SF-295 CNS
SF-539 CNS = test system: SF-539 CNS
SK-MEL-28 melanoma = test system: SK-MEL-28 melanoma
SK-MEL-5 melanoma = test system: SK-MEL-5 melanoma
SK-OV-3 ovarian = test system: SK-OV-3 ovarian
SN12C renal = test system: SN12C renal
SNB-19 CNS = test system: SNB-19 CNS
SNB-75 CNS = test system: SNB-75 CNS
SR leukemia = test system: SR leukemia
SW-620 colon = test system: SW-620 colon
T-47D breast = test system: T-47D breast
TK-10 renal = test system: TK-10 renal
U251 glioblastoma = test system: U251 glioblastoma
UACC-257 melanoma = test system: UACC-257 melanoma
UACC-62 melanoma = test system: UACC-62 melanoma
UO-31 renal = test system: UO-31 renal

Compound: CCN1CCN(Cc2ccc(-c3cc4c(N[C@H](C)c5ccccc5)ncnc4[nH]3)cc2)CC1
- GI50 ([…]-0 renal): 1070 nM
- TGI (786-0 renal): 2280 nM
- GI50 (A498 renal): 1220 nM
- TGI (A498 renal): 2610 nM
- GI50 (A549 NSCLC): 1060 nM
- TGI (A549 NSCLC): 3520 nM
- GI50 (ACHN renal): 89 nM
- TGI (ACHN renal): 1520 nM
- GI50 (BT-549 breast): 1590 nM
- TGI (BT-549 breast): 3140 nM
- GI50 (CAKI-1 renal): 299 nM
- TGI (CAKI-1 renal): 1880 nM
- GI50 (CCRF-CEM leukemia): 1830 nM
- TGI (CCRF-CEM leukemia): 3230 nM
- GI50 (COLO 205 colon): 1780 nM
- TGI (COLO 205 colon): 3290 nM
- GI50 (DU-145 prostate): 1540 nM
- TGI (DU-145 prostate): 10800 nM
- GI50 (EKVX NSCLC): 91.2 nM
- TGI (EKVX NSCLC): 2340 nM
- GI50 (HCC-2998 colon): 1560 nM
- TGI (HCC-2998 colon): 3040 nM
- GI50 (HCT-15 colon): 1360 nM
- TGI (HCT-15 colon): 2750 nM
- GI50 (HL-60(TB) leukemia): 1660 nM
- TGI (HL-60(TB) leukemia): 3020 nM
- GI50 (HOP-62 NSCLC): 1660 nM
- TGI (HOP-62 NSCLC): 3310 nM
- GI50 (HOP-92 NSCLC): 1260 nM
- TGI (HOP-92 NSCLC): 2640 nM
- GI50 (HS 578T breast): 1480 nM
- TGI (HS 578T breast): 2830 nM
- GI50 (HT29 colon): 1450 nM
- TGI (HT29 colon): 2930 nM
- GI50 (IGROV1 ovarian): 120 nM
- TGI (IGROV1 ovarian): 695 nM
- GI50 (K-562 leukemia): 217 nM
- TGI (K-562 leukemia): 550 nM
- GI50 (KM12 colon): 1920 nM
- TGI (KM12 colon): 4070 nM
- GI50 (LOX IMVI melanoma): 1570 nM
- TGI (LOX IMVI melanoma): 2910 nM
- GI50 (M14 melanoma): 1590 nM
- TGI (M14 melanoma): 2950 nM
- GI50 (MALME-3M melanoma): 1380 nM
- TGI (MALME-3M melanoma): 2680 nM
- GI50 (MCF7 breast): 1490 nM
- TGI (MCF7 breast): 2970 nM
- GI50 (MDA-MB-231 breast): 1560 nM
- TGI (MDA-MB-231 breast): 3640 nM
- GI50 (MDA-MB-435 melanoma): 1620 nM
- TGI (MDA-MB-435 melanoma): 3040 nM
- GI50 (MDA-MB-468 breast): 22.7 nM
- TGI (MDA-MB-468 breast): 60 nM
- GI50 (MOLT-4 leukemia): 1340 nM
- TGI (MOLT-4 leukemia): 2620 nM
- GI50 (NCI-H226 lung): 1100 nM
- TGI (NCI-H226 lung): 4440 nM
- GI50 (NCI-H23 lung): 1520 nM
- TGI (NCI-H23 lung): 3940 nM
- GI50 (NCI-H322M lung): 51.7 nM
- TGI (NCI-H322M lung): 1130 nM
- GI50 (NCI-H460 NSCLC): 1750 nM
- TGI (NCI-H460 NSCLC): 3570 nM
- GI50 (NCI-H522 lung): 111 nM
- TGI (NCI-H522 lung): 1320 nM
- GI50 (NCI/ADR-RES ovarian): 2020 nM
- TGI (NCI/ADR-RES ovarian): 6110 nM
- GI50 (OVCAR-3 ovarian): 1320 nM
- TGI (OVCAR-3 ovarian): 5360 nM
- GI50 (OVCAR-4 ovarian): 1560 nM
- TGI (OVCAR-4 ovarian): 5250 nM
- GI50 (OVCAR-5 ovarian): 440 nM
- TGI (OVCAR-5 ovarian): 2790 nM
- GI50 (OVCAR-8 ovarian): 1570 nM
- TGI (OVCAR-8 ovarian): 3740 nM
- GI50 (PC-3 prostate): 1850 nM
- TGI (PC-3 prostate): 8640 nM
- GI50 (RPMI-8226 leukemia): 1280 nM
- TGI (RPMI-8226 leukemia): 2550 nM
- GI50 (RXF 393 renal): 1420 nM
- TGI (RXF 393 renal): 2810 nM
- GI50 (SF-268 CNS): 1490 nM
- TGI (SF-268 CNS): 3350 nM
- GI50 (SF-295 CNS): 1710 nM
- TGI (SF-295 CNS): 3230 nM
- GI50 (SF-539 CNS): 1560 nM
- TGI (SF-539 CNS): 2910 nM
- GI50 (SK-MEL-28 melanoma): 1590 nM
- TGI (SK-MEL-28 melanoma): 2940 nM
- GI50 (SK-MEL-5 melanoma): 1530 nM
- TGI (SK-MEL-5 melanoma): 2870 nM
- GI50 (SK-OV-3 ovarian): 349 nM
- TGI (SK-OV-3 ovarian): 1710 nM
- GI50 (SN12C renal): 203 nM
- TGI (SN12C renal): 2070 nM
- GI50 (SNB-19 CNS): 2460 nM
- TGI (SNB-19 CNS): 11600 nM
- GI50 (SNB-75 CNS): 2040 nM
- TGI (SNB-75 CNS): 5980 nM
- GI50 (SR leukemia): 1760 nM
- TGI (SR leukemia): 3150 nM
- GI50 (SW-620 colon): 1770 nM
- TGI (SW-620 colon): 3510 nM
- GI50 (T-47D breast): 439 nM
- TGI (T-47D breast): 2590 nM
- GI50 (TK-10 renal): 389 nM
- TGI (TK-10 renal): 2040 nM
- GI50 (U251 glioblastoma): 1800 nM
- TGI (U251 glioblastoma): 3620 nM
- GI50 (UACC-257 melanoma): 1360 nM
- TGI (UACC-257 melanoma): 2640 nM
- GI50 (UACC-62 melanoma): 1620 nM
- TGI (UACC-62 melanoma): 3000 nM
- GI50 (UO-31 renal): 1330 nM
- TGI (UO-31 renal): 11900 nM
